Like-named read-outs stand apart in the source and are kept apart here.
What was measured:
[1] = target: T1, hMC4-R (Homo sapiens (Human), UniProt P32245); test: Competitive inhibition binding assay using [I125]-NDP-α-MSH, hMC4-R; settings: membranes of HEK-293 cells expressing recombinant hMC4-R, read-out: MC4-R Ki
[2] = target: MC1-R; test: Competitive inhibition binding assay using [I125]-NDP-α-MSH, MC1-R; settings: membranes of B-16 mouse melanoma cells (endogenous MC1-R), in some instances HEK-293 hMC1-R
Method: 7.1 Competitive Inhibition Assay using [I^125]-NDP-α-MSH.
A competitive inhibition binding assay was performed for exemplified peptides according to the invention using membrane homogenates prepared from HEK-293 cells that express recombinant hMC4-R, hMC3-R, or hMC5-R, and from B-16 mouse melanoma cells (containing endogenous MC1-R). In some instances, HEK-293 cells that express recombinant hMC1-R were employed. Assays were performed in 96 well GF/B Millipore multiscreen filtration plates (MAFB NOB10) pre-coated with 0.5% bovine serum albumin (Fraction V). Membrane homogenates were incubated with 0.2 nM (for hMC4-R) 0.4 nM (for MC3-R and MC5-R) or 0.1 nM (for mouse B16 MC1-R or hMC1-R) [I^125]-NDP-α-MSH (Perkin Elmer) and increasing concentrations of test peptides of the present invention in buffer containing 25 mM HEPES buffer (pH 7.5) with 100 mM NaCl, 2 mM CaCl2, 2 mM MgCl2, 0.3 mM 1,10-phenanthroline, and 0.2% bovine serum albumin. After incubation for 60 minutes at 37° C., the assay mixture was filtered and the membranes washed three times with ice-cold buffer. Filters were dried and counted in a gamma counter for bound radioactivity. […] Maximal specific binding (100%) was defined as the difference in radioactivity (cpm) bound to cell membranes in the absence and presence of 1 μM NDP-α-MSH. […] Each assay was conducted in triplicate and the actual mean values are described, with results less than 0% reported as 0%. Ki values for test peptides of the present invention were determined using Graph-Pad Prism® curve-fitting software.

[3] = target: T1, hMC4-R; test: High and low density hMC4-R functional assay (cAMP, HEK293-T-REx-MC4-R cells); assay type: cell-based; settings: for Emax: NDP-α-MSH = 100%, read-out: Intrinsic Activity (%)
[4] = 0.1 ng/mL Doxycycline (low density hMC4-R system)
[5] = 10 ng/mL Doxycycline (high density hMC4-R system)

T1 sequence (P32245 whole entry): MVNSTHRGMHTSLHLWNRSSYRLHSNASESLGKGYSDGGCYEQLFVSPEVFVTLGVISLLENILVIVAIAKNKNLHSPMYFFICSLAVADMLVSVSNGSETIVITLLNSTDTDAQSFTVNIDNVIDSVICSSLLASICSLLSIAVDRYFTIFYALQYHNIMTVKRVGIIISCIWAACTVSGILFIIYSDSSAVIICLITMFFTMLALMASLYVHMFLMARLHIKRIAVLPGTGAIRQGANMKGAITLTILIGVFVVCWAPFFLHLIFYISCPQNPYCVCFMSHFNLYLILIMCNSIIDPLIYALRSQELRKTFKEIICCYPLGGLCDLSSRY

| Compound | Ki [1] [nM] | Ki [2] [nM] | EC50 [3, 4] [nM] | Emax [3, 4] [%] | EC50 [3, 5] [nM] | Emax [3, 5] [%] |
| --- | --- | --- | --- | --- | --- | --- |
| CC(=O)N[C@H](CCCNC(=N)N)C(=O)N[C@H]1CCCNC(=O)CC[C@@H](C(N)=O)NC(=O)[C@H](Cc2c[nH]c3ccccc23)NC(=O)[C@H](CCCNC(=N)N)NC(=O)[C@@H](Cc2ccc(F)cc2)NC(=O)[C@H](Cc2c[nH]cn2)NC1=O [Example 57, Ac-D-Arg-cyclo(Orn-His-D-Phe(4-F)-Arg-Trp-Glu)-NH2] | 0.65 | 1 | 0.25 | 89 | 0.095 | 100 |
| CC(=O)N[C@@H](CCCNC(=N)N)C(=O)N[C@H]1CCC(=O)NCCC[C@@H](C(N)=O)NC(=O)[C@H](Cc2c[nH]c3ccccc23)NC(=O)[C@H](CCCNC(=N)N)NC(=O)[C@@H](Cc2ccc(F)cc2)NC(=O)[C@@H]2C[C@@H](O)CN2C1=O [Example 60, Ac-Arg-cyclo(Glu-Hyp-D-Phe(4-F)-Arg-Trp-Orn)-NH2] | 1 | 89 | 0.45 | 62 | 0.14 | 95 |
| CC(=O)N[C@@H](CCCNC(=N)N)C(=O)N[C@H]1CCC(=O)NCCC[C@@H](C(N)=O)NC(=O)[C@H](Cc2c[nH]c3ccccc23)NC(=O)[C@H](CCCNC(=N)N)NC(=O)[C@@H](Cc2ccccc2Cl)NC(=O)[C@H]([C@@H](C)OCc2ccccc2)NC1=O [Example 63, Ac-Arg-cyclo(Glu-Thr(Bzl)-D-Phe(2-Cl)-Arg-Trp-Orn)-NH2] | 0.35 | 12 | 0.37 | 30 | 0.157 | 93 |
| CC(=O)N[C@@H](CCCNC(=N)N)C(=O)N[C@H]1CCC(=O)NCCC[C@@H](C(N)=O)NC(=O)[C@H](Cc2c[nH]c3ccccc23)NC(=O)[C@H](CCCNC(=N)N)NC(=O)[C@@H](Cc2ccccc2F)NC(=O)[C@@H]2C[C@@H](O)CN2C1=O [Example 64, Ac-Arg-cyclo(Glu-Hyp-D-Phe(2-F)-Arg-Trp-Orn)-NH2] | 3 | 53 | 1 | 57 | 0.08 | 90 |
| CC(=O)N[C@@H](CCCNC(=N)N)C(=O)N[C@H]1CCC(=O)NCCC[C@@H](C(N)=O)NC(=O)[C@H](Cc2c[nH]c3ccccc23)NC(=O)[C@H](CCCNC(=N)N)NC(=O)[C@@H](Cc2ccccc2F)NC(=O)[C@@H]2CCCN2C1=O [Example 66, Ac-Arg-cyclo(Glu-Pro-D-Phe(2-F)-Arg-Trp-Orn)-NH2] | 6 | 95 | 5 | 32 | 0.265 | 88 |
| CC(=O)N[C@@H](CCCNC(=N)N)C(=O)N[C@H]1CCC(=O)NCCC[C@@H](C(N)=O)NC(=O)[C@H](Cc2c[nH]c3ccccc23)NC(=O)[C@H](CCCNC(=N)N)NC(=O)[C@@H](Cc2ccc(F)cc2)NC(=O)[C@H](CC(N)=O)NC1=O [Example 69, Ac-Arg-cyclo(Glu-Asn-D-Phe(4-F)-Arg-Trp-Orn)-NH2] | 3 | 150 | 0.25 | 76 | 0.095 | 92 |
| CC(=O)N[C@@H](CCCNC(=N)N)C(=O)N[C@H]1CCCNC(=O)CC[C@@H](C(N)=O)NC(=O)[C@H](Cc2c[nH]c3ccccc23)NC(=O)[C@H](CCCNC(=N)N)NC(=O)[C@@H](Cc2ccccc2F)NC(=O)[C@H](CC(N)=O)NC1=O [Example 71, Ac-Arg-cyclo(Orn-Asn-D-Phe(2-F)-Arg-Trp-Glu)-NH2] | 9 | 335 | 1 | 86 | 0.085 | 91 |
| CC(=O)N[C@@H](CCCNC(=N)N)C(=O)N[C@H]1CCCNC(=O)CC[C@@H](C(N)=O)NC(=O)[C@H](Cc2c[nH]c3ccccc23)NC(=O)[C@H](CCCNC(=N)N)NC(=O)[C@@H](Cc2ccccc2C)NC(=O)[C@H](CC(N)=O)NC1=O [Example 74, Ac-Arg-cyclo(Orn-Asn-D-Phe(2-Me)-Arg-Trp-Glu)-NH2] | 5 | 405 | – | 68 | – | 100 |
| CC(=O)N[C@@H](CCCNC(=N)N)C(=O)N[C@H]1CCC(=O)NCCC[C@@H](C(N)=O)NC(=O)[C@H](Cc2c[nH]c3ccccc23)NC(=O)[C@H](CCCNC(=N)N)NC(=O)[C@@H](Cc2cc(F)cc(F)c2)NC(=O)[C@H](CC(N)=O)NC1=O [Example 76, Ac-Arg-cyclo(Glu-Asn-D-Phe(3,4-diF)-Arg-Trp-Orn)-NH2] | 20 | 260 | 3 | 53 | 0.135 | 85 |
| CC(=O)N[C@H](CCCNC(=N)N)C(=O)N[C@H]1CC(=O)NCCCC[C@@H](C(N)=O)NC(=O)[C@H](Cc2c[nH]c3ccccc23)NC(=O)[C@H](CCCNC(=N)N)NC(=O)[C@@H](Cc2ccccc2Cl)NC(=O)[C@H](CCC(N)=O)NC1=O [Example 79, Ac-D-Arg-cyclo(Asp-Gln-D-Phe(2-Cl)-Arg-Trp-Lys)-NH2] | 10 | 395 | 4 | 48 | 0.2 | 85 |
| CC(=O)N[C@@H](CCCNC(=N)N)C(=O)N[C@H]1CCC(=O)NCCC[C@@H](C(N)=O)NC(=O)[C@H](Cc2c[nH]c3ccccc23)NC(=O)[C@H](CCCNC(=N)N)NC(=O)[C@@H](Cc2ccccc2F)NC(=O)[C@H](CC(N)=O)NC1=O [Example 84, Ac-Arg-cyclo(Glu-Asn-D-Phe(2-Cl)-Arg-Trp-Orn)-NH2] | 7 | 245 | – | 78 | 0.09 | 97 |

Second part, the molecule after the results:

| Ki [1] [nM] | Ki [2] [nM] | EC50 [3, 4] [nM] | Emax [3, 4] [%] | EC50 [3, 5] [nM] | Emax [3, 5] [%] | Compound |
| --- | --- | --- | --- | --- | --- | --- |
| 20 | 23 | 10 | 28 | 0.8 | 98 | CC(=O)N[C@@H](CCCNC(=N)N)C(=O)N[C@H]1CCC(=O)NCCC[C@@H](C(=O)O)NC(=O)[C@H](Cc2c[nH]c3ccccc23)NC(=O)[C@H](CCCNC(=N)N)NC(=O)[C@@H](Cc2cccc(Cl)c2)NC(=O)[C@H](CCCN)NC1=O [Example 55, Ac-Arg-cyclo(Glu-Orn-D-Phe(3-Cl)-Arg-Trp-Orn)-OH] |
| 11 | 30 | 5 | 41 | 0.3 | 98 | CC(=O)NCC[C@@H]1NC(=O)[C@@H](NC(=O)[C@H](CCCNC(=N)N)NC(C)=O)CCC(=O)NCCC[C@@H](C(N)=O)NC(=O)[C@H](Cc2c[nH]c3ccccc23)NC(=O)[C@H](CCCNC(=N)N)NC(=O)[C@@H](Cc2ccccc2Cl)NC1=O [Example 56, Ac-Arg-cyclo(Glu-Dab(Acetyl)-D-Phe(2-Cl)-Arg-Trp-Orn)-NH2] |
| 5 | 43 | 1 | 58 | 0.085 | 93 | CC(=O)N[C@@H](CCCNC(=N)N)C(=O)N[C@H]1CCC(=O)NCCC[C@@H](C(N)=O)NC(=O)[C@H](Cc2c[nH]c3ccccc23)NC(=O)[C@H](CCCNC(=N)N)NC(=O)[C@@H](Cc2ccc(F)cc2)NC(=O)[C@H](CO)NC1=O [Example 65, Ac-Arg-cyclo(Glu-Ser-D-Phe(4-F)-Arg-Trp-Orn)-NH2] |
| 2 | 33 | 0.85 | 55 | 0.075 | 91 | CC(=O)N[C@@H](CCCNC(=N)N)C(=O)N[C@H]1CCC(=O)NCCC[C@@H](C(N)=O)NC(=O)[C@H](Cc2c[nH]c3ccccc23)NC(=O)[C@H](CCCNC(=N)N)NC(=O)[C@@H](Cc2ccc(F)cc2)NC(=O)[C@H](CCS(C)(=O)=O)NC1=O [Example 68, Ac-Arg-cyclo(Glu-Met(O2)-D-Phe(4-F)-Arg-Trp-Orn)-NH2] |
| 3 | 190 | 0.65 | 43 | 0.125 | 87 | CC(=O)N[C@@H](CCCNC(=N)N)C(=O)N[C@H]1CCCNC(=O)CC[C@@H](C(N)=O)NC(=O)[C@H](Cc2c[nH]c3ccccc23)NC(=O)[C@H](CCCNC(=N)N)NC(=O)[C@@H](Cc2ccc(F)c(F)c2)NC(=O)[C@H](CC(N)=O)NC1=O [Example 75, Ac-Arg-cyclo(Orn-Asn-D-Phe(3,4-diF)-Arg-Trp-Glu)-NH2] |
| 7 | 1750 | 6 | 13 | 0.65 | 86 | CC(=O)N[C@H](CCCNC(=N)N)C(=O)N[C@H]1CC(=O)NCCCC[C@@H](C(N)=O)NC(=O)[C@H](Cc2c[nH]c3ccccc23)NC(=O)[C@H](CCCNC(=N)N)NC(=O)[C@@H](Cc2cccc(Cl)c2)NC(=O)[C@H](CCC(N)=O)NC1=O [Example 80, Ac-D-Arg-cyclo(Asp-Gln-D-Phe(3-Cl)-Arg-Trp-Lys)-NH2] |

— patent US9040663B2, “Melanocortin receptor-specific peptides” (AstraZeneca AB, priority 2009, dated 2015)
